Tested on: Vero cells
Type: cell-based

Chlorin e6 [free Ce6]
cell-associated Ce6-specific fluorescence (delivery of Ce6 to cells): no detectable Ce6-specific fluorescence

— US6631283B2 (priority 2000, dated 2003)
